Results taken from patent US11026427B2, “Microbiocidal oxadiazole derivatives” (SYNGENTA PARTICIPATIONS AG, priority 2016, dated 2021).

Legend:
[1] = tested on: Glomerella lacenarium (Colletotrichum lacenarium); test: Glomerella lacenarium (Colletotrichum lacenarium) liquid culture / cucumber / preventative (anthracnose); type: cell-based; settings: 20 ppm in the applied formulation, growth inhibition measured photometrically, compared to untreated control, read-out: disease control
Outline: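 Conidia from cryogenic storage were mixed into potato dextrose broth and added to DMSO solutions of test compound in microtiter plates. Plates were incubated at 24° C. and growth inhibition read photometrically 3 to 4 days after application, as percent antifungal activity versus untreated check.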

Uromyces viciae-fabae = Uromyces viciae-fabae / field bean / leaf disc preventative (faba-bean rust); type: in vivo; settings: foliar, 288 h, 100 ppm in the applied formulation, compared to untreated control, read-out: disease control
Description: Leaf disks or leaf segments of various plant species are cut from plants grown in a greenhouse. The cut leaf disks or segments are placed in multiwell plates (24-well format) onto water agar. The leaf disks are sprayed with a test solution before (preventative) or after (curative) inoculation. Compounds to be tested are prepared as DMSO solutions (max. 10 mg/ml) which are diluted to the appropriate concentration with 0.025% Tween20 just before spraying. The inoculated leaf disks or segments are incubated under defined conditions (temperature, relative humidity, light, etc.) according to the respective test system. A single evaluation of disease level is carried out 3 to 14 days after inoculation, depending on the pathosystem. Percent disease control relative to the untreated check leaf disks or segments is then calculated.
Field bean leaf discs are placed on water agar in multiwell plates (96-well format) and 10 μl of the formulated test compound diluted in acetone and a spreader pipetted onto the leaf disc. Two hours after application leaf discs are inoculated by spraying a spore suspension on the lower leaf surface. The leaf discs are incubated in a climate cabinet at 22° C. with 18 hour day and 70% relative humidity. The activity of a compound is assessed as percent disease control compared to untreated when an appropriate level of disease damage appears in untreated check leaf disks (12 days after application).
The following compounds at 100 ppm in the applied formulation give at least 80% disease control in this test when compared to untreated control leaf discs under the same conditions, which show extensive disease development.

[2] = tested on: Puccinia recondita f. Sp. tritici; test: Puccinia recondita f. sp. tritici / wheat / leaf disc preventative (brown rust); type: in vivo; settings: foliar, 200 ppm in the applied formulation, compared to untreated control, read-out: disease control
Outline: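 Compound, diluted from DMSO solution into aqueous 0.025% Tween20, is sprayed at 200 ppm onto cut wheat segments (cv. Kanzler) placed on water agar. One day on, segments receive a fungal spore suspension and are incubated at 19° C., 75% rh, 12 h photoperiod, with % control vs untreated scored at 7–9 days.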

Phakopsora pachyrhizi = Phakopsora pachyrhizi / soybean / leaf disc preventative (Asian soybean rust); type: in vivo; settings: foliar, 200 ppm in the applied formulation, compared to untreated control, read-out: disease control
Outline: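 Read-out is percent disease control relative to untreated check discs, assessed once untreated discs show adequate disease, 12 to 14 days after application. Compounds, tested at 200 ppm in the applied formulation, are sprayed onto soybean leaf discs one day before inoculation with a spore suspension.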

[3] = tested on: Puccinia recondita f. Sp. tritici; test: Puccinia recondita f. sp. tritici / wheat / leaf disc curative (brown rust); type: in vivo; settings: foliar, 200 ppm in the applied formulation, compared to untreated control, read-out: disease control
Outline: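 Wheat cv. Kanzler leaf segments on agar were inoculated with fungal spore suspension, held dark at 19° C and 75% RH, then sprayed 1 day later with formulated compound diluted in water. Incubation continued at 19° C, 75% RH, 12 h light/12 h dark; percent disease control versus untreated was scored 6 to 8 days after application.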

Row | Compound | melting point [°C] | inhibition of growth at 20 ppm [1] [%] | pest or weed control at 100 ppm (Uromyces viciae-fabae) [%] | pest or weed control at 200 ppm [2] [%] | pest or weed control at 200 ppm (Phakopsora pachyrhizi) [%] | pest or weed control at 200 ppm [3] [%]
1 | OC(c1ccccc1)c1ccc(-c2noc(C(F)(F)F)n2)cc1 (centres unmarked) [Compound 2.2, phenyl-[4-[5-(trifluoromethyl)-1,2,4-oxadiazol-3-yl]phenyl]methanol] | 63 to 69 | ≥ 80 | ≥ 80 | ≥ 80 | ≥ 80 | 
2 | CC#CC(O)c1ccc(-c2noc(C(F)(F)F)n2)cc1 (centres unmarked) [Compound 2.6, 1-[4-[5-(trifluoromethyl)-1,2,4-oxadiazol-3-yl]phenyl]but-2-yn-1-ol] | 93 to 96 | ≥ 80 | ≥ 80 | ≥ 80 | ≥ 80 | ≥ 80
